Structures are written as SMILES.

The test system of one experiment is rat limbic system. The conditions noted are these: pretreatment of rats, systemic kainic acid seizure; cited from earlier work.
Experiment [1] relates to mechanical hyperalgesia of the affected hind paw. Description: Mechanical hyperalgesia (von Frey foot withdrawal) after L5 spinal nerve ligation. It counts as in vivo. The conditions noted are these: SNL mice, PBN 150 mg/kg i.p. or 100 μg i.t. As for the experimental part:
Inhibition of neuron death using one of the anti-oxidant agents described above is examined in a spinal injury model as described below. The oxidation inhibitor used is phenyl-N-tert-butylnitrone, a ROS scavenger. Peripheral nerve injury is induced by tightly ligating the L5 spinal nerve under isoflurane anesthesia (2% induction and 1.5% maintenance). Seven days after SNL, mice are randomly divided into treatment and control groups. Mice belonging to one treatment group are injected by one of two different routes with phenyl-N-tert-butylnitrone, PBN (Sigma, St. Louis, Mo.). Doses of PBN used are 150 mg/kg (i.p., 0.1 ml) or 100 μg (i.t., 5 μl), dissolved in saline at a concentration of 20 mg/ml. Mice in the control groups are treated with the same volume of saline. […]
Pain behavior is tested by assessing mechanical hyperalgesia of the affected hind paw. […] Mechanical hyperalgesia of the hind paw is measured by determining the frequency of foot withdrawals to 10 stimuli applied with a von Frey (vF) filament (Stoelting, Wood Dale, Ill.). […] Response rates are calculated as a percentage of the number of positive responses/10 stimuli.

In another experiment the test system is GABA neurons. Description: Whole-cell patch recording in lumbar spinal cord slices. The experiment is classed as cell-based, mouse. The following applies: spinal cord slices of PBN treated mice.

On to `COc1cccc(C=NCCN=Cc2cccc(OC)c2[O-])c1[O-].[Cl-].[Mn+3]` [EUK-134], for which, in the experiment with rat limbic system, the “activator protein-1- and NF-kB-binding activity” value is given as “reduction”; the increased protein nitration entry is given as “reduction”; the “neuronal damage resulting from seizure activity in limbic structures” value is on record as “reduction”; the spectrin proteolysis result is “reduction”.

As to `CC(C)(C)[N+]([O-])=Cc1ccccc1` [PBN, phenyl-N-tert-butylnitrone], in experiment [1], the “foot withdrawal to von Frey filament (pain behavior)” value is “withdraw their foot less abruptly”. In addition, in the experiment on GABA neurons, the “action potential discharge (excitatory) pattern of surviving neurons” value is reported as “superior action potential discharge (excitatory) pattern”; the “excitability and firing activity of GABA neurons” value was “restore excitability and prevent suppression of firing activity”.

Values taken from patent US11911504B2, “Apparatus and method for protecting neurons and reducing inflammation and scarring” (GALEN THERAPEUTICS LLC, priority 2018, dated 2024).
